Test results published in PubChem BioAssay (NCI).
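Test compounds were applied to cells in 96-well plates for 48 hours at 5 doses. Abbreviation: GI50, concentration required for 50% inhibition of growth. TGI denotes the concentration required for complete inhibition of growth.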

How the values were obtained:
Assay in all cases: NCI anticancer screen, dose series, 48 h
786-0 renal = tested on: 786-0 renal
A498 renal = tested on: A498 renal
A549 NSCLC = tested on: A549 NSCLC
ACHN renal = tested on: ACHN renal
BT-549 breast = tested on: BT-549 breast
CAKI-1 renal = tested on: CAKI-1 renal
CCRF-CEM leukemia = tested on: CCRF-CEM leukemia
COLO 205 colon = tested on: COLO 205 colon
DU-145 prostate = tested on: DU-145 prostate
HCC-2998 colon = tested on: HCC-2998 colon
HCT-116 colon = tested on: HCT-116 colon
HCT-15 colon = tested on: HCT-15 colon
HL-60(TB) leukemia = tested on: HL-60(TB) leukemia
HOP-62 NSCLC = tested on: HOP-62 NSCLC
HOP-92 NSCLC = tested on: HOP-92 NSCLC
HS 578T breast = tested on: HS 578T breast
HT29 colon = tested on: HT29 colon
IGROV1 ovarian = tested on: IGROV1 ovarian
K-562 leukemia = tested on: K-562 leukemia
KM12 colon = tested on: KM12 colon
LOX IMVI melanoma = tested on: LOX IMVI melanoma
M14 melanoma = tested on: M14 melanoma
MALME-3M melanoma = tested on: MALME-3M melanoma
MCF7 breast = tested on: MCF7 breast
MDA-MB-231 breast = tested on: MDA-MB-231 breast
MDA-MB-435 = tested on: MDA-MB-435
MOLT-4 leukemia = tested on: MOLT-4 leukemia
NCI-H226 lung = tested on: NCI-H226 lung
NCI-H23 lung = tested on: NCI-H23 lung
NCI-H460 lung = tested on: NCI-H460 lung
NCI-H522 lung = tested on: NCI-H522 lung
NCI/ADR-RES ovarian = tested on: NCI/ADR-RES ovarian
OVCAR-3 ovarian = tested on: OVCAR-3 ovarian
OVCAR-4 ovarian = tested on: OVCAR-4 ovarian
OVCAR-5 ovarian = tested on: OVCAR-5 ovarian
OVCAR-8 ovarian = tested on: OVCAR-8 ovarian
RPMI-8226 leukemia = tested on: RPMI-8226 leukemia
RXF 393 renal = tested on: RXF 393 renal
SF-268 CNS = tested on: SF-268 CNS
SF-295 CNS = tested on: SF-295 CNS
SF-539 CNS = tested on: SF-539 CNS
SK-MEL-28 melanoma = tested on: SK-MEL-28 melanoma
SK-MEL-5 melanoma = tested on: SK-MEL-5 melanoma
SK-OV-3 ovarian = tested on: SK-OV-3 ovarian
SN12C renal = tested on: SN12C renal
SNB-19 CNS = tested on: SNB-19 CNS
SNB-75 CNS = tested on: SNB-75 CNS
SR leukemia = tested on: SR leukemia
SW-620 colon = tested on: SW-620 colon
T-47D breast = tested on: T-47D breast
TK-10 renal = tested on: TK-10 renal
U251 CNS = tested on: U251 CNS
UACC-257 melanoma = tested on: UACC-257 melanoma
UACC-62 melanoma = tested on: UACC-62 melanoma
UO-31 renal = tested on: UO-31 renal

Compound: Cc1cc(NCCCNc2ccnc3cc(Cl)ccc23)nc(N2CCN(C)CC2)n1
- GI50 (786-0 renal): 14.7 µM
- TGI (786-0 renal): 38.3 µM
- GI50 (A498 renal): 14.4 µM
- TGI (A498 renal): 28.3 µM
- GI50 (A549 NSCLC): 3.66 µM
- TGI (A549 NSCLC): 16.5 µM
- GI50 (ACHN renal): 3.71 µM
- TGI (ACHN renal): 21 µM
- GI50 (BT-549 breast): 13.1 µM
- TGI (BT-549 breast): 53.3 µM
- GI50 (CAKI-1 renal): 3.12 µM
- TGI (CAKI-1 renal): 11.2 µM
- GI50 (CCRF-CEM leukemia): 2.59 µM
- TGI (CCRF-CEM leukemia): 14.7 µM
- GI50 (COLO 205 colon): 2.28 µM
- TGI (COLO 205 colon): 6.29 µM
- GI50 (DU-145 prostate): 5.5 µM
- TGI (DU-145 prostate): 17.9 µM
- GI50 (HCC-2998 colon): 2.36 µM
- TGI (HCC-2998 colon): 11.1 µM
- GI50 (HCT-116 colon): 2.22 µM
- TGI (HCT-116 colon): 13 µM
- GI50 (HCT-15 colon): 3.29 µM
- TGI (HCT-15 colon): 22.8 µM
- GI50 (HL-60(TB) leukemia): 2.99 µM
- TGI (HL-60(TB) leukemia): 9.06 µM
- GI50 (HOP-62 NSCLC): 4.79 µM
- TGI (HOP-62 NSCLC): 21 µM
- GI50 (HOP-92 NSCLC): 15.2 µM
- TGI (HOP-92 NSCLC): 37.4 µM
- GI50 (HS 578T breast): 12.4 µM
- TGI (HS 578T breast): 36.9 µM
- GI50 (HT29 colon): 1.33 µM
- TGI (HT29 colon): 13.5 µM
- GI50 (IGROV1 ovarian): 8.14 µM
- TGI (IGROV1 ovarian): 39.9 µM
- GI50 (K-562 leukemia): 1.86 µM
- TGI (K-562 leukemia): 11.7 µM
- GI50 (KM12 colon): 3.97 µM
- TGI (KM12 colon): 17.1 µM
- GI50 (LOX IMVI melanoma): 2 µM
- TGI (LOX IMVI melanoma): 5.2 µM
- GI50 (M14 melanoma): 1.94 µM
- TGI (M14 melanoma): 3.61 µM
- GI50 (MALME-3M melanoma): 2.12 µM
- TGI (MALME-3M melanoma): 4.47 µM
- GI50 (MCF7 breast): 2.77 µM
- TGI (MCF7 breast): 28.4 µM
- GI50 (MDA-MB-231 breast): 2.07 µM
- TGI (MDA-MB-231 breast): 15.8 µM
- GI50 (MDA-MB-435): 2.57 µM
- TGI (MDA-MB-435): 7.07 µM
- GI50 (MOLT-4 leukemia): 2.46 µM
- TGI (MOLT-4 leukemia): 15.8 µM
- GI50 (NCI-H226 lung): 3.39 µM
- TGI (NCI-H226 lung): 22 µM
- GI50 (NCI-H23 lung): 5.9 µM
- TGI (NCI-H23 lung): 28.6 µM
- GI50 (NCI-H460 lung): 2.66 µM
- TGI (NCI-H460 lung): 10.4 µM
- GI50 (NCI-H522 lung): 2.43 µM
- TGI (NCI-H522 lung): 11.1 µM
- GI50 (NCI/ADR-RES ovarian): 17.5 µM
- TGI (NCI/ADR-RES ovarian): 61.7 µM
- GI50 (OVCAR-3 ovarian): 5.79 µM
- TGI (OVCAR-3 ovarian): 25.7 µM
- GI50 (OVCAR-4 ovarian): 4.03 µM
- TGI (OVCAR-4 ovarian): 44.5 µM
- GI50 (OVCAR-5 ovarian): 11.6 µM
- TGI (OVCAR-5 ovarian): 43.2 µM
- GI50 (OVCAR-8 ovarian): 7.76 µM
- TGI (OVCAR-8 ovarian): 44 µM
- GI50 (RPMI-8226 leukemia): 2.56 µM
- TGI (RPMI-8226 leukemia): 7.45 µM
- GI50 (RXF 393 renal): 1.35 µM
- TGI (RXF 393 renal): 4.99 µM
- GI50 (SF-268 CNS): 6.74 µM
- TGI (SF-268 CNS): 26.3 µM
- GI50 (SF-295 CNS): 3.51 µM
- TGI (SF-295 CNS): 12.3 µM
- GI50 (SF-539 CNS): 1.84 µM
- TGI (SF-539 CNS): 3.6 µM
- GI50 (SK-MEL-28 melanoma): 1.84 µM
- TGI (SK-MEL-28 melanoma): 3.67 µM
- GI50 (SK-MEL-5 melanoma): 1.67 µM
- TGI (SK-MEL-5 melanoma): 3.24 µM
- GI50 (SK-OV-3 ovarian): 7.66 µM
- TGI (SK-OV-3 ovarian): 45.6 µM
- GI50 (SN12C renal): 4.76 µM
- TGI (SN12C renal): 33.9 µM
- GI50 (SNB-19 CNS): 12.5 µM
- TGI (SNB-19 CNS): 49.5 µM
- GI50 (SNB-75 CNS): 13 µM
- TGI (SNB-75 CNS): 34.4 µM
- GI50 (SR leukemia): 1.81 µM
- TGI (SR leukemia): 6.41 µM
- GI50 (SW-620 colon): 2.62 µM
- TGI (SW-620 colon): 17.5 µM
- GI50 (T-47D breast): 6.7 µM
- TGI (T-47D breast): 30.9 µM
- GI50 (TK-10 renal): 6.51 µM
- TGI (TK-10 renal): 29.9 µM
- GI50 (U251 CNS): 3.91 µM
- TGI (U251 CNS): 17.2 µM
- GI50 (UACC-257 melanoma): 1.8 µM
- TGI (UACC-257 melanoma): 3.88 µM
- GI50 (UACC-62 melanoma): 2.05 µM
- TGI (UACC-62 melanoma): 4.55 µM
- GI50 (UO-31 renal): 4.05 µM
- TGI (UO-31 renal): 24 µM
